Read-outs that look alike come from different tables or passages of the source.
Assays:
[1] = Rat tolerance/dependence study, 28 day repeated dosing and withdrawal
[2] = Cue-induced reinstatement (relapse) in heroin addicted rats; assay type: in vivo, male Long-Evans hooded rats
[3] = Pretreatment study: effect on heroin self-administration; assay type: in vivo, rhesus monkeys
[4] = rat, in vivo
[5] = Dose-finding study: lever pressing for food (FR 10); details: two monkeys
[6] = IV self-administration substitution study in heroin-maintained primates (FR 30)

SMILES	tolerance and dependence ([1]; 30 mg/kg orally twice per day, 28 days)	Active lever presses during the reinstatement test session ([2]; 1 mg/kg s.c. 30 minutes pre-session)	Active lever presses during the reinstatement test session ([2]; 3 mg/kg s.c. 30 minutes pre-session)	Active lever presses during the reinstatement test session ([2]; 10 mg/kg s.c. 30 minutes pre-session)	Heroin infusions per session (mean ± SEM, N = 4) ([3]; pretreatment 0.1 mg/kg IV 15 minutes prior)	Heroin infusions per session (mean ± SEM, N = 4) ([3]; pretreatment 1.0 mg/kg IV 15 minutes prior)	Heroin infusions per session (mean ± SEM, N = 4) ([3]; pretreatment 1.0 mg/kg SC (100% PEG) 15 minutes prior)	t-1/2 ([4]; po, 10 mg/kg) [h]	t-1/2 ([4]; sc, 3 mg/kg) [h]	average rate of responding for food ([5]; 0.0001 mg/kg IV) [responses per second]	average rate of responding for food ([5]; 0.001 mg/kg IV) [responses per second]	average rate of responding for food ([5]; 0.01 mg/kg IV) [responses per second]	average rate of responding for food ([5]; 0.1 mg/kg IV) [responses per second]	predominant behavioral and physical effects during the dosing phase ([1]; 0.3 mg/kg s.c. four times per day)	tolerance during dosing for 28 days ([1]; 0.3 and 3 mg/kg s.c. four times per day)	physical dependence upon cessation of dosing ([1]; 0.3 and 3 mg/kg s.c. four times per day, 28 days)	effect on animal body weight, food and water intake or body temperature ([1]; 0.3 and 3 mg/kg s.c. four times per day, on-dose or withdrawal phase)	main behavioral and physical signs during the dosing phase ([1]; higher dose, 3 mg/kg s.c. four times per day)	Infusions per session (mean ± SEM, N = 4) ([6]; 0.01 mg/kg/infusion IV)	Infusions per session (mean ± SEM, N = 4) ([6]; 0.1 mg/kg/infusion IV)
CN1CC[C@]23c4c5ccc(O)c4O[C@H]2[C@@H](O)C=C[C@H]3[C@H]1C5 [Morphine, morphine, reference compound]	clear signs of tolerance and dependence																			
O=C1CN2c3c(cccc3[C@@H]3CN(CCCOc4ccc(F)cc4)CC[C@@H]32)N1 [Example 1, (6bR,10aS)-8-(3-(4-fluorophenoxy)propyl)-6b,7,8,9,10,10a-hexahydro-1H-pyrido[3′,4′:4,5]pyrrolo[1,2,3-de]quinoxalin-2(3H)-one]		22.64	31.17	29.50	24.8 ± 0.8	23.3 ± 2.8	24.5 ± 1.9	3.1	9.5	0.94±0.01	0.86±0.11	0.97±0.21	0.98±0.24	hunched posture, Straub tail and piloerection	does not produce tolerance	not to produce a syndrome of physical dependence	no significant effect	hunched posture, subdued behavior, Straub tail, tail rattle and piloerection	0.6 ± 0.2	1.5 ± 0.3
